# Results reported in US11674120B2, “Methods, kits, and compositions for enhancing cellular therapy” (University of Florida Research Foundation, Incorporated, priority 2016, dated 2023).
# Test system: lymph nodes and spleens
# Test: In vivo migration of PKH+ DCs to lymph nodes and spleen (immunofluorescence)
# Set-up: species or system C57BL/6 mice
# Settings: intradermal injection, 48 hours
# Procedure: Dendritic cells were cultured and loaded with sarcosine as described in Example 1. DCs were also loaded with PKH cell membrane dye. […] After 48 hours, the lymph nodes and spleens were collected from the mice and immunofluorescence was performed to visualize PKH+ cells (which are the injected DCs) and B220+ cells (which are B cells). […] There was vastly more migration to the lymph nodes/spleen.
smiles,measurement,value
"CNCC(=O)O [sarcosine, N-methylglycine]","Increase of migration to the lymph nodes and the spleen over controls, on visual inspection","more than two times, three times, four times more, five times and perhaps even more than ten-fold more than controls"
